What all share (assay type): biochemical
The target of assay [1] is T1, Klenow fragment of E. coli DNA polymerase I (Escherichia coli, UniProt P00582).
T1 construct: the Klenow fragment of E. coli DNA polymerase I
The assay is described as follows: Presteady-state kinetics: incorporation of unnatural triphosphate opposite dNaM and extension. As to conditions: 2 μM dCTP, 10 s, dXTPs paired with dNaM; for % Incorporation: 40 nM unnatural triphosphate; for % Extension: 10 μM unnatural triphosphate. The text has this:
Exemplary methods for analyzing unnatural base pair synthesis efficiency (insertion of an unnatural nucleobase opposite its partner in a template) and extension (continued primer elongation) are provided herein. One or both of the nucleobases in an unnatural base pair, in various embodiments, may be a linker-derivatized unnatural nucleobase. One method uses a presteady-state assay. The assay is based on determining, under a fixed set of conditions, the amount of a primer (e.g. 23-mer) that is extended by addition of the unnatural nucleotide opposite its complementary nucleotide in a template (e.g., 45-mer) by a polymerase (e.g., the Klenow fragment of E. coli DNA polymerase I). In this assay, the efficiency of unnatural base pair synthesis is characterized by measuring the percent incorporation (% inc) at a given concentration of the unnatural and next correct triphosphate, for example using a ratio such as [24-mer+25-mer]/[23-mer+24-mer+25-mer]. In this assay, the efficiency of extension is characterized by measuring the percent extension (% ext) at a given concentration of the next correct nucleotide and saturating concentrations of unnatural nucleotide, for example using a ratio [25-mer]/[24-mer+25-mer]. Results from an exemplary presteady-state assay are shown in Table 1, wherein the unnatural triphosphate is 5SICS, FPT1, TPT1, TPT2, TPT3, FTPT3, TPT3^PA, or 5SICS^PA. In some embodiments, the percent incorporation of an unnatural nucleobase is at least 60%, 65%, 70%, 71%, 72%, 73%, 74%, 75%, 76%, 77%, 78%, 79%, 80%, 81%, 82%, 83%, 84%, 85%, 86%, 87%, 88%, 89%, 90%, 91%, 92%, 93%, 94%, 95%, 96%, 97%, 98%, or 99%. In some embodiments, the percent extension of a next correct nucleotide following insertion of an unnatural nucleobase is at least 30%, 31%, 32%, 33%, 34%, 35%, 36%, 37%, 38%, 39%, 40%, 41%, 42%, 43%, 44%, 45%, 46%, 47%, 48%, 49%, 50%, 55%, 60%, 65%, 70%, 75%, 80%, 85%, 90% or greater. In some embodiments, synthesis efficiency is increased by derivatizing the unnatural nucleobase. For example, by the addition of a linker, a protected linker, and/or a linker conjugated to a cargo molecule. As another example, derivatization includes atom substitutions, additions, or deletions. In some embodiments, percent extension is increased by derivatizing the unnatural nucleobase. Derivatization of an unnatural nucleobase, in some instances, increases by at least 1-2 orders of magnitude the efficiency of insertion of the nucleotide complementary to the base pair in the template. This increase in efficiency may be due to an increase kcat and a decreased KM.
^aIncorporation assay conditions: 40 nM unnatural triphosphate, […], 10s. ^bExtension assay conditions: […], 2 μM dCTP, 10 s. dXTPs are paired with dNaM.

A further assay concerns OneTaq polymerase. The assay is described as follows: PCR-based screen and amplification of DNA containing unnatural base pairs, OneTaq (Example 1). The settings on record: OneTaq, 1 min Extension, 52 cycles, D6 template. The method, then: (§1) The triphosphates of the 6 group were prepared from the previously reported nucleosides (Kubelka, T., Slavetinska, L., Eigner, V. and Hocek, M. Synthesis of 2,6-disubstituted pyridin-3-yl C-2′-deoxyribonucleosides through chemoselective transformations of bromo-chloropyridine C-nucleosides. Org. Biomol. Chem., 11, 4702-4718) according to Ludwig, J. and Eckstein, F. Rapid and efficient synthesis of nucleoside 5′-0-(1-thiotriphosphates), 5′-triphosphates and 2′,3′-cyclophosphorothioates using 2-chloro-4H-1,3,2-benzodioxaphosphorin-4-one. J. Org. Chem., 54, 631-635. The purity of all other triphosphates was confirmed by MALDI-TOF and UV-VIS. Taq and OneTaq DNA polymerases were purchased from New England Biolabs (Ipswich, Mass.). A mixture of dNTPs was purchased from Fermentas (Glen Burnie, Md.). SYBR Green I Nucleic Acid Gel Stain (10,000×) was purchased from Life Technologies (Carlsbad, Calif.). The synthesis of the DNA templates, D8 (Malyshev, D. A., Dhami, K., Quach, H. T., Lavergne, T., Ordoukhanian, P., Torkamani, A. and Romesberg, F. E. Efficient and sequence-independent replication of DNA containing a third base pair establishes a functional six-letter genetic alphabet. Proc. Natl. Acad. Sci. USA, 109, 12005-12010), used for screening rounds 1-5, and D6 (Malyshev, D. A., Seo, Y. J., Ordoukhanian, P. and Romesberg, F. E. PCR with an expanded genetic alphabet. J. Am. Chem. Soc., 131, 14620-14621), used for all other amplifications, was described previously. Sanger sequencing was carried out as described previously (Malyshev, D. A., Dhami, K., Quach, H. T., Lavergne, T., Ordoukhanian, P., Torkamani, A. and Romesberg, F. E. Efficient and sequence-independent replication of DNA containing a third base pair establishes a functional six-letter genetic alphabet. Proc. Natl. Acad. Sci. USA, 109, 12005-12010). Raw Sanger sequencing traces were used to determine the percent retention of the unnatural base pairs, which was converted to fidelity per doubling, as described (Malyshev, D. A., Dhami, K., Quach, H. T., Lavergne, T., Ordoukhanian, P., Torkamani, A. and Romesberg, F. E. Efficient and sequence-independent replication of DNA containing a third base pair establishes a functional six-letter genetic alphabet. Proc. Natl. Acad. Sci. USA, 109, 12005-12010; Malyshev, D. A., Seo, Y. J., Ordoukhanian, P. and Romesberg, F. E. PCR with an expanded genetic alphabet. J. Am. Chem. Soc., 131, 14620-14621).
(§2) All PCR amplifications were performed in a CFX Connect Real-Time PCR Detection System (Bio-Rad), in a total volume of 25 μL using the following conditions: 1× OneTaq reaction buffer, 0.5× Sybr Green I, MgSO4 adjusted to 4.0 mM, 0.2 mM of each dNTP, 50 μM of each unnatural triphosphate, […] of Primer1 and Primer2 (See Table 2), and 0.02 U/μl of the DNA polymerase. Other conditions specific for each round of screening are described in Table 3. Amplified products were purified using DNA Clean and Concentrator-5 spin columns from Zymo Research (Irvine, Calif.). After purification, the PCR products were sequenced on a 3730 DNA Analyzer (Applied Biosystems) to determine the retention of the unnatural base pair as described below. Fidelity was characterized from unnatural base pair (UBP) retention as determined by sequencing with Primer1 on a 3730 DNA Analyzer (Applied Biosystems).
(§3) Specific PCR assay conditions. PCR with the most promising UBPs was carried out with the conditions as described in Table 3. PCR products were further purified on […] gels, followed by single band excision and subsequent clean up using the Zymo Research Zymoclean Gel DNA Recovery Kit. After elution with 20 μl of water, the DNA concentration was measured using fluorescent dye binding (Quant-iT dsDNA HS Assay kit, Life Technologies), and purified amplicons were sequenced in triplicate with both Primer1 and Primer2 to determine UBP retention and thus amplification fidelity. […]

The next assay has as its target T2, Taq polymerase (Thermus aquaticus, UniProt P19821).
T2 construct: purchased New England Biolabs (Ipswich, Mass.)
The experiment in a line: PCR-based screen and amplification of DNA containing unnatural base pairs, Taq (Example 1). As to conditions: Taq, 10 s Extension, 52 cycles, D6 template. The method, then:
as §1, §2, §3

Marks after values point to notes of the source that are not given here. Bounds are passed on as bounds.

T1 sequence (P00582 324-928): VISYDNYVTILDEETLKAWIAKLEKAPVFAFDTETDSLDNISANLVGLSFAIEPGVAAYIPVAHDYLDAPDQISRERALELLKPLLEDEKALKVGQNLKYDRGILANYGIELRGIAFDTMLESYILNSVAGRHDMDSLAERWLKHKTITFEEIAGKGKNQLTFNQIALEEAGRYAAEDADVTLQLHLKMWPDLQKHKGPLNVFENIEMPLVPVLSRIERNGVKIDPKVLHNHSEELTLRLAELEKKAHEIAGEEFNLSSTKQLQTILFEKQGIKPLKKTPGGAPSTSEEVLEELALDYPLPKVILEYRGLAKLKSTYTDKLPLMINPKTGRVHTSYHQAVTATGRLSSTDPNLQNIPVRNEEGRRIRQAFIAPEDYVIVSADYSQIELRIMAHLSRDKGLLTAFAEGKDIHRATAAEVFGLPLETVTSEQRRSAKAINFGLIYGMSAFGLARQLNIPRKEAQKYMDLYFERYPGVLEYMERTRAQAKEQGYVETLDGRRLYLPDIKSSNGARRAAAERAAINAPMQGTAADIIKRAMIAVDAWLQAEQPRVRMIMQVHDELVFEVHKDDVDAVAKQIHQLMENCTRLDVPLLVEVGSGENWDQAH
T2 sequence (P19821 whole entry): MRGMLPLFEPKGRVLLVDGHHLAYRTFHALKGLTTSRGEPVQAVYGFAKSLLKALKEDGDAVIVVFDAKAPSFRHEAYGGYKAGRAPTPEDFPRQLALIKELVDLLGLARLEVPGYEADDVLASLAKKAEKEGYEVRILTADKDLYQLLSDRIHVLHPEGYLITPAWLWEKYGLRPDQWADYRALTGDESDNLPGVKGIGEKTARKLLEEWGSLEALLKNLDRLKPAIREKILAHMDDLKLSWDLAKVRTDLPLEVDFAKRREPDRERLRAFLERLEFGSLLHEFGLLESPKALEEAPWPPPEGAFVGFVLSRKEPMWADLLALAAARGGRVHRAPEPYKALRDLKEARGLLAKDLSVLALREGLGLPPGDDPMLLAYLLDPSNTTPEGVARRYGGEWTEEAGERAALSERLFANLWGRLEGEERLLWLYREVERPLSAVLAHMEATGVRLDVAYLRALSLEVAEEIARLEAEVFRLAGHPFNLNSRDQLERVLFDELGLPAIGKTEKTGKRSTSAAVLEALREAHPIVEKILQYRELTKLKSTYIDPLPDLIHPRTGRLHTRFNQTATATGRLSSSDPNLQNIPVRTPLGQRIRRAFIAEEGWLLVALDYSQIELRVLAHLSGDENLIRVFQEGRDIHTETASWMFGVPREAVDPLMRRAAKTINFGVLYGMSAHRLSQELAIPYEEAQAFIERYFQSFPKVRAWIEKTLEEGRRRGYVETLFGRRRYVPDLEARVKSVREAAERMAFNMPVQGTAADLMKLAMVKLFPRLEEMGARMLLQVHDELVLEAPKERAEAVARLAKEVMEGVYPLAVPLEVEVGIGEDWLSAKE

`Cc1cc2ccn([C@H]3C[C@H](O)[C@@H](COP(=O)(O)OP(=O)(O)OP(=O)(O)O)O3)c(=S)c2s1` [TPT2]: in assay [1], the “% Incorporation” value is on record as 65.7 ± 0.5% and the “% Extension” value stood at 34.5 ± 0.5%.
For `Cc1cc2c(=S)n([C@H]3C[C@H](O)[C@@H](COP(=O)(O)OP(=O)(O)OP(=O)(O)O)O3)ccc2s1` [TPT1], in that order: 28.7 ± 0.5% and 8.8 ± 0.2%.
Take `COc1cc2ccccc2cc1[C@H]1C[C@H](O)[C@@H](COP(=O)(O)OP(=O)(O)OP(=O)(O)O)O1.Cc1ccc2c(=S)n([C@H]3C[C@H](O)[C@@H](COP(=O)(O)OP(=O)(O)OP(=O)(O)O)O3)ccc2c1` [5SICS-NaM, reference compound]: in the assay on OneTaq polymerase, the “Amplification, ×10^12” value is reported as 8.1 ×10^12; the “Fidelity per Doubling, %” value was 99.00 ± 0.02%; the “Retention, %” value stood at 77.1 ± 0.7%. At Taq polymerase, the “Amplification, ×10^12” value was 9.3 ×10^12; the “Fidelity per Doubling, %” value is on record as <85^b %; the “Retention, %” value is listed as <50^b %.
`C#Cc1cc(OC)c([C@H]2C[C@H](O)[C@@H](COP(=O)(O)OP(=O)(O)OP(=O)(O)O)O2)cc1F.O=P(O)(O)OP(=O)(O)OP(=O)(O)OC[C@H]1O[C@@H](n2cc(F)c3ccsc3c2=S)C[C@@H]1O` [FTPT3-FEMO]: in the assay on OneTaq polymerase, the “Amplification, ×10^12” value is on record as 6.3 ×10^12; the “Fidelity per Doubling, %” value is 99.24 ± 0.04%; the “Retention, %” value is 72.4 ± 1.4%. On Taq polymerase, the “Amplification, ×10^12” value was 5.7 ×10^12; the “Fidelity per Doubling, %” value is 99.51 ± 0.11%; the “Retention, %” value is 81 ± 4%.
With `O=P(O)(O)OP(=O)(O)OP(=O)(O)OC[C@H]1O[C@@H](n2cc(F)c3ccsc3c2=S)C[C@@H]1O` [FTPT3], in assay [1], the “% Incorporation” value is 66.3 ± 0.5% and the “% Extension” value is recorded as 33.8 ± 0.2%.
For `Cc1cc2c(=S)n([C@H]3C[C@H](O)[C@@H](COP(=O)(O)OP(=O)(O)OP(=O)(O)O)O3)ccc2o1` [FPT1], in that order: 7.2 ± 0.2% and 32.0 ± 1.5%.
For `COc1cc(I)ccc1[C@H]1C[C@H](O)[C@@H](COP(=O)(O)OP(=O)(O)OP(=O)(O)O)O1.O=P(O)(O)OP(=O)(O)OP(=O)(O)OC[C@H]1O[C@@H](n2cc(F)c3ccsc3c2=S)C[C@@H]1O` [FTPT3-IMO], in the assay on OneTaq polymerase, the “Amplification, ×10^12” value is given as 7.1 ×10^12; the “Fidelity per Doubling, %” value amounted to 99.38 ± 0.05%; the “Retention, %” value stood at 76.8 ± 1.6%. Moreover, on Taq polymerase, the “Amplification, ×10^12” value is on record as 5.6 ×10^12; the “Fidelity per Doubling, %” value came out at 99.54 ± 0.13%; the “Retention, %” value is 82 ± 5%.
With `COc1cc(I)c(F)cc1[C@H]1C[C@H](O)[C@@H](COP(=O)(O)OP(=O)(O)OP(=O)(O)O)O1.O=P(O)(O)OP(=O)(O)OP(=O)(O)OC[C@H]1O[C@@H](n2ccc3ccsc3c2=S)C[C@@H]1O` [TPT3-FIMO], in the assay on OneTaq polymerase, the “Amplification, ×10^12” value is 8.7 ×10^12; the “Fidelity per Doubling, %” value turned out to be 99.61 ± 0.03%; the “Retention, %” value came out at 84.7 ± 1.1%. In addition, on Taq polymerase, the “Amplification, ×10^12” value is given as 8.5 ×10^12; the “Fidelity per Doubling, %” value is on record as 99.60 ± 0.09%; the “Retention, %” value is given as 84 ± 3%.

Values taken from patent US11634451B2, “Method for the site-specific enzymatic labelling of nucleic acids in vitro by incorporation of unnatural nucleotides” (The Scripps Research Institute, priority 2013, dated 2023).
